Measured values from US10766866B2, “Deterrents for arthropods and marine organisms” (priority 2017, dated 2020).
Read-outs that look alike come from different tables or passages of the source.

How the values were obtained:
[1] = system: AeOctR (Aedes octopamine receptor), cloned α-like OctR; experiment: OctR activation: change in intracellular calcium (CALCIUM 6QR dye, FlexStation 3) in stably transfected mammalian cells; format: cell-based, Aedes aegypti; details: agonist
Text: (§1) Functional expression of cloned arthropod OctRs and human α2-ARs: The cDNAs for α-like OctRs from different arthropod species (e.g., Anopheles gambiae, Aedes aegypti, Periplaneta americana, Drosophila melanogaster, Ixodes scapularis, Balanus improvises) and for α2-AR subtypes from humans were individually subcloned into mammalian expression vectors. These plasmids, which harbor a resistance gene for the selection drug G418 and the cDNA sequence for the receptor of interest, were individually transfected into mammalian cells using a calcium phosphate precipitation method. G418 selection was then employed to generated stable clonal cell lines. Utilizing rapid filtration radioligand binding techniques, the cell surface density of receptor expression of the individual clonal cell lines was determined at equilibrium and those with similar high levels of expression were selected for further experiments. Briefly, binding conditions were 50 mM Tris binding buffer pH 7.4 at 25° C. and an ice-cold wash buffer 10 mM Tris-HCl, pH 7.4). The radioligand was [3H]rauwolscine and non-specific binding was determined in the presence of 10 μM atipamezole. Following the addition of membranes prepared from the clonal cell lines, samples were mixed and allowed 2 hr. to reach equilibrium before rapid filtration and washing through 0.3% PEI-treated GF/C filters. The radioactivity remaining on the filters was quantified by scintillation counting. Receptor density (Bmax) was back calculated knowing the specific activity of the radioligand and applying the equation for a square hyperbola model: Bmax=(Y·(KD+X))/X, where Y is [specifically bound radioligand] and X=[radio ligand concentration]. The affinity (KD) for the radioligand for each receptor was determined in separate saturation isotherm binding experiments using the same binding conditions as describe above.
(§2) Measurement of OctR activation by measuring changes in intracellular calcium: Activation of arthropod α-like OctRs increases intracellular calcium via a Gq-coupling mechanism. This involves activation of phospholipase C leading to an increase in intracellular inositol triphosphate (IP3) which then activates IP3-gated calcium channels in the endoplasmic reticulum causing a transient rise in intracellular calcium. These changes in intracellular calcium upon OctR activation were measured by loading cells with intracellular calcium sensitive dye CALCIUM 6QR and reading the change in calcium-induced fluorescent signal over time on a FlexStation 3 microplate reader.

[2] = biological target: T1, Hsα2A-AR (human α2A adrenergic receptor) (Homo sapiens, UniProt P08913); experiment: [3H]rauwolscine competition radioligand binding, membranes of clonal mammalian cell lines; details: 50 mM Tris pH 7.4, 25° C., 2 hr, Cheng-Prusoff
T1 construct: expressed in transfected cells; membranes
T1 sequence (P08913 whole entry): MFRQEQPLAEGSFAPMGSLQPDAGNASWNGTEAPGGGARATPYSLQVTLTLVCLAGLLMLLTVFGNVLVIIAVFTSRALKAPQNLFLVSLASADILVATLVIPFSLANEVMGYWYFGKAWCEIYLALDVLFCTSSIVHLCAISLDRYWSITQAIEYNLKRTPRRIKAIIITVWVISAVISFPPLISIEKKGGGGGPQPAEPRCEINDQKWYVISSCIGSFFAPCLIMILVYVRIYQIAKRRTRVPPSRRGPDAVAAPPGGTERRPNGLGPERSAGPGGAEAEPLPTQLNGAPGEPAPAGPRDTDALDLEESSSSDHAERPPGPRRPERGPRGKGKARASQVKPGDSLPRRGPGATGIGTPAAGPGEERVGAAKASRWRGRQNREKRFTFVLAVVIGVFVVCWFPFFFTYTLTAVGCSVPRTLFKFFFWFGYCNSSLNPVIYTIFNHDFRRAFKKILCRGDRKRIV
Text: as §1
(§3) Measurement of compound affinities by competition radioligand binding: Affinities (Ki) for compounds were determined by [3H]rauwolscine competition binding using the same binding conditions as described above. The Ki values were calculated from IC50 values using the Cheng-Prusoff equation.

[3] = biological target: T2, Hsα2C-AR (human α2C adrenergic receptor) (Homo sapiens, UniProt P18825); experiment: as above; details: 50 mM Tris pH 7.4, 25° C., 2 hr, Cheng-Prusoff
T2 construct: expressed in transfected cells
T2 sequence (P18825 1-462): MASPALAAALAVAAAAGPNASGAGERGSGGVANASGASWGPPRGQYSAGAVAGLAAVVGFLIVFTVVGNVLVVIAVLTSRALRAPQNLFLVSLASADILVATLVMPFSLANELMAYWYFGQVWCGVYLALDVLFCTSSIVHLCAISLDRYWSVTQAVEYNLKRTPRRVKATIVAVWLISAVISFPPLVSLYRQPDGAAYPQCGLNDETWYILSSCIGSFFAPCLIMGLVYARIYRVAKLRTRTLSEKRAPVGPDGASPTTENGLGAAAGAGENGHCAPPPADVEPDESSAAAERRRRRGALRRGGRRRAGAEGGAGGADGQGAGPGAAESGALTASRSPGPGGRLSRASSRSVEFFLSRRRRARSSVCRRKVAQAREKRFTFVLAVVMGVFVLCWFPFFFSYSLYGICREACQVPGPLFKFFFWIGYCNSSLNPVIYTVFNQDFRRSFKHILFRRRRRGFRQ
Text: as §1, §3

[4] = biological target: T3, AgAOctR (Anopheles octopamine receptor isoform A), cloned α-like OctR (Anopheles gambiae, UniProt Q7PRZ8); experiment: OctR activation: change in intracellular calcium (CALCIUM 6QR dye, FlexStation 3) in stably transfected mammalian cells; format: cell-based; details: agonist
T3 construct: Gq calcium readout
T3 sequence (Q7PRZ8 1-592): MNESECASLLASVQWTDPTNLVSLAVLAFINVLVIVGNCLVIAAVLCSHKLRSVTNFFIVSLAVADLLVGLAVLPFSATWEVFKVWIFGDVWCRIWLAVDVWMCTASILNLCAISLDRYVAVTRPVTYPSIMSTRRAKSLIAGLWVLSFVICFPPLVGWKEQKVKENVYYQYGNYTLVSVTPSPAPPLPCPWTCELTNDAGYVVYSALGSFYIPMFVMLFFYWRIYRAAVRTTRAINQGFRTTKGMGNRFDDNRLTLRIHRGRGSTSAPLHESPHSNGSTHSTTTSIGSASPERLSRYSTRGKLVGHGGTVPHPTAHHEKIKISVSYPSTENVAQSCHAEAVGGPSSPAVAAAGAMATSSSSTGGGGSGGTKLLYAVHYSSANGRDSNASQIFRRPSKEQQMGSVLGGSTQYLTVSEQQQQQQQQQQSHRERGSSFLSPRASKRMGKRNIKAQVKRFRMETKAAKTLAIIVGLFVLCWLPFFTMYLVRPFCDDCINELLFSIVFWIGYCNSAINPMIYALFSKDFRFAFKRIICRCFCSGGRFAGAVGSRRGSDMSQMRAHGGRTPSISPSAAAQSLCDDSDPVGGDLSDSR
Text: as §1, §2

[5] = biological target: T4, PaOctR (Periplaneta octopamine receptor), cloned α-like OctR (Periplaneta americana, UniProt Q7YWB7); experiment: as above; format: cell-based; details: agonist
T4 construct: Gq calcium readout
T4 sequence (Q7YWB7 1-628): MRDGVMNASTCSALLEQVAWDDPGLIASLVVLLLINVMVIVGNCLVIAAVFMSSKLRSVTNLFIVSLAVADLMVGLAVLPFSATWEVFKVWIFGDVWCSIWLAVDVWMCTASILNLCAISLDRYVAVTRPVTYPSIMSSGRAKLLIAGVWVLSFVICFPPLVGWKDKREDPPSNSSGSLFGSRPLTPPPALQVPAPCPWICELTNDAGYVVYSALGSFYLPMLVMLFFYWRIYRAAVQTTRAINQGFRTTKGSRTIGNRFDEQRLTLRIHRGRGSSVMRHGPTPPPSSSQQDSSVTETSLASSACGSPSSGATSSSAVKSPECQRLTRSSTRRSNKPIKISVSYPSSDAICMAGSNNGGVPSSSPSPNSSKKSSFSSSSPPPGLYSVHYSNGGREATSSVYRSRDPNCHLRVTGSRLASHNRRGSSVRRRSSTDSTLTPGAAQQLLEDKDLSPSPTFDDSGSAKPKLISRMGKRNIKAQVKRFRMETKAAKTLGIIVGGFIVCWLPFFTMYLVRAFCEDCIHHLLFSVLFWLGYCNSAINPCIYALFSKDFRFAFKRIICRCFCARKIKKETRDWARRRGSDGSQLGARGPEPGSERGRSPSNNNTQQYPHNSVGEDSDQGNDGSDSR
Text: as §1, §2

[6] = biological target: T5, DmOctR (Drosophila octopamine receptor), cloned α-like OctR (Drosophila melanogaster, UniProt Q7JQF1); experiment: as above; format: cell-based; details: agonist
T5 construct: Gq calcium readout
T5 sequence (Q7JQF1 1-645): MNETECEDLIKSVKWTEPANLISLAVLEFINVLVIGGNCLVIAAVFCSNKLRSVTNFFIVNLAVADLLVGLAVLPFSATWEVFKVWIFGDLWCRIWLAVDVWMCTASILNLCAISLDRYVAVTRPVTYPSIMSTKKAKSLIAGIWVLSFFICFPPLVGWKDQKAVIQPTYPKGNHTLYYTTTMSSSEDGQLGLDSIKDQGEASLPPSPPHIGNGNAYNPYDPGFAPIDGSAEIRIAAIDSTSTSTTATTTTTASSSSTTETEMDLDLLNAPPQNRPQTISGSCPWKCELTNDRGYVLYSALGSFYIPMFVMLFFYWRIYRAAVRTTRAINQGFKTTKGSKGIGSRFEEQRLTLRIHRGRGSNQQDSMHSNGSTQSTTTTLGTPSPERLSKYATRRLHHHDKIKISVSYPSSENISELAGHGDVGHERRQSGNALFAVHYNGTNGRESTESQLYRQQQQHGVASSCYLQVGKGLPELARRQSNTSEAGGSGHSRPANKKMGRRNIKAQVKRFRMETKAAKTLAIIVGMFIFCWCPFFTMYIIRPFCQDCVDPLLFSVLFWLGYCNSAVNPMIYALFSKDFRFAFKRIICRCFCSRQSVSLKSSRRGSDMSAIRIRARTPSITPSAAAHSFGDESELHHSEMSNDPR
Text: as §1, §2

[7] = system: IsTOctR (Ixodes octopamine receptor), cloned α-like OctR; experiment: as above; format: cell-based, Ixodes scapularis
Text: as §1, §2

[8] = system: Anopheles gambiae mosquito isoform A OctR (AgAOctR); experiment: OctR activation, change in intracellular calcium; format: cell-based; details: for selectivity Ki(Hsα2-AR)/EC50(OctR): AgAOctR over Homo sapien α2-AR subtypes
Text: as §1, §2

[9] = system: Periplaneta americana OctR (PaOctR); experiment: OctR activation, change in intracellular calcium; format: cell-based; details: 100 μM; normalized to octopamine at a supersaturating concentration; FIG. 1D
Text: as §1, §2

[10] = system: Aedes aegypti α-like OctR (AeOctR); experiment: OctR activation, change in intracellular calcium; format: cell-based; details: 100 μM; normalized to octopamine at a supersaturating concentration; FIG. 1B
Text: as §1, §2

[11] = biological target: T6, Drosophila melanogaster α-like OctR (DmOctR) (Drosophila melanogaster, UniProt Q7JQF1); experiment: OctR activation, change in intracellular calcium; format: cell-based; details: 100 μM; normalized to octopamine at a supersaturating concentration; FIG. 1A
T6 construct: expressed in transfected cells
T6 sequence (Q7JQF1 1-645): T5 sequence (Q7JQF1 1-645)
Text: as §1, §2

[12] = system: Ixodes scapularis tick OctR (IsTOctR); experiment: OctR activation, change in intracellular calcium; format: cell-based; details: 100 μM; normalized to octopamine at a supersaturating concentration; FIG. 1C
Text: as §1, §2

Aedes mosquito = experiment: Protection against mosquito biting and toxicity to mosquitoes; format: in vivo; details: DEET: at the lowest concentration that produces maximal protection against biting (LC50)
Balanus OctR (BiOctR) = experiment: OctR activation, change in intracellular calcium; format: cell-based, Balanus improvises; details: 100 μM; compared with octopamine
Text: as §1, with “Briefly, binding conditions were 50 mM Tris binding buffer pH 7.4 at 25° C. and an ice-cold wash buffer 10 mM Tris-HCl, pH 7.4).” left out, “Following the addition of membranes prepared from the clonal cell lines, samples were mixed and allowed 2 hr. to reach equilibrium before rapid filtration and washing through 0.3% PEI-treated GF/C filters.” left out, “The affinity (KD) for the radioligand for each receptor was determined in separate saturation isotherm binding experiments using the same binding conditions as describe above.” left out

[13] = agonist, read-out: IsTOctR (Ixodes octopamine receptor) EC50

Row | Compound | Ki [2] [nM] | Ki [3] [nM] | EC50 [4] [nM] | EC50 [7, 13] [nM] | selectivity Ki(Hsα2-AR)/EC50(OctR) [8] | agonist response (change in intracellular calcium) relative to octopamine [10] | agonist response (change in intracellular calcium) relative to octopamine [11] | other results
1 | Cc1cccc(C(O)c2cnc[nH]2)c1C (centres unmarked) [AZ0024] | 356 ± 77 | 558 ± 85 | 0.42 ± 0.13 | 4.4 ± 2.9 | highly selective |  |  | EC50 [1]: 627 ± 274 nM; EC50 [5]: 5.9 ± 2.9 nM; EC50 [6]: 57 ± 13 nM
2 | Cc1c(C(O)c2cnc[nH]2)cccc1C(F)(F)F (centres unmarked) [AZ1399] | 3210 ± 672 | 2110 ± 385 | 11 ± 3.7 | 43 ± 11 | highly selective |  |  | EC50 [5]: 82 ± 25 nM; EC50 [6]: 367 ± 237 nM
3 | COC(c1cnc[nH]1)c1cccc(C)c1C (centres unmarked) [AZ1400] | 1310 ± 247 | 973 ± 146 | 2.3 ± 0.69 | 35 ± 7.4 | highly selective |  |  | EC50 [1]: > 20000 nM; EC50 [5]: 85 ± 34 nM; EC50 [6]: 846 ± 440 nM
4 | C/C=C(\c1cnc[nH]1)c1cccc(C)c1C [AZ1409 Z-isomer] |  |  | 58 ± 41 | 969 ± 358 |  |  |  | 
5 | Cc1cccc(C(O)c2cnc[nH]2)c1 (centres unmarked) [AZ1410] | 4200 ± 1760 | 9440 ± 6470 | 38 ± 16 | 185 ± 92 | highly selective |  |  | 
6 | C=C(c1cnc[nH]1)c1cccc(C(F)(F)F)c1C [AZ1415] |  |  | 0.58 ± 0.61 | 18 ± 6.9 | highly selective |  |  | efficacy (full/partial agonist) ([8]; in words, FIGS. 9-12): full efficacy; potency (EC50) ([8]; in words, FIGS. 9-12): high potency
7 | C/C=C(/c1cnc[nH]1)c1cccc(C)c1C [AZ1440 E-isomer] |  |  | 10 ± 4.7 |  |  |  |  | EC50 ([7]; read-out: IsTOctR (Ixodes octopamine receptor) EC50, agonist): 90 ± 25 nM
8 | CCN(CC)C(=O)c1cccc(C)c1 [DEET, N,N-diethyl-meta-toluamide] |  |  |  |  |  | did not produce a significant agonist response | did not produce a significant agonist response | agonist response (change in intracellular calcium) relative to octopamine [9]: did not produce a significant agonist response; agonist response (change in intracellular calcium) relative to octopamine [12]: did not produce a significant agonist response; toxicity to mosquitoes (Aedes mosquito): lethal in half the mosquitoes
9 | CCCCN(CCC(=O)OCC)C(C)=O [IR3535, ethyl butylacetylaminopropionate] |  |  |  |  |  | did not produce a significant agonist response | did not produce a significant agonist response | agonist response (change in intracellular calcium) relative to octopamine [9]: did not produce a significant agonist response; agonist response (change in intracellular calcium) relative to octopamine [12]: did not produce a significant agonist response
10 | CC1CCC(C(C)(C)O)C(O)C1 (centres unmarked) [PMD, para-menthane-3,8-diol] |  |  |  |  |  | < 25% | < 25% | 
11 | CCC(C)OC(=O)N1CCCCC1CCO (centres unmarked) [picaridin, 1-(1-methylpropoxycarbonyl)-2-(2-hydroxyethyl)piperidine] |  |  |  |  |  | did not produce a significant agonist response | did not produce a significant agonist response | agonist response (change in intracellular calcium) relative to octopamine (Balanus OctR (BiOctR)): significant agonist responses; agonist response (change in intracellular calcium) relative to octopamine [9]: did not produce a significant agonist response; agonist response (change in intracellular calcium) relative to octopamine [12]: did not produce a significant agonist response
